Patent US20230348538A1, “METHOD FOR TREATMENT OF DRY EYE COMPRISNG APPLYING P55PIK INHIBITOR” (Wuhan Yicheng Biological Technology Co., Ltd., priority 2020, published 2023)
Entries after “also recorded” stand apart in the source; their conditions may differ.

Experiments:
[1] = test system: rat model of dry eye induced by corneal epithelial injury; test: Rat model of dry eye induced by corneal epithelial injury: corneal epithelial injury score (sodium fluorescein, slit lamp); format: in vivo, SD rats
Description: Grouping and administration: the eighteen rats were then randomly divided into three groups, with 6 laboratory rats in each group (male and female in equal numbers); Group 1 was the blank control group and received no treatment; Group 2 was the solvent control group and was treated with solvent eye drops that contained a solvent but no TAT-N16 peptide; Group 3 was the drug treatment group and was treated with eye drops comprising 0.1% TAT-N16 peptide; the eye drops were administered four times a day (1 drop/time) for 7 days; the corneal epithelial injury was evaluated on days 0, 4 and 7 after treatment.
Detection method and scoring criteria: corneal staining was performed by injecting 1 drop pf sodium fluorescein into the conjunctival sac using the 5 mL sterile syringe with the […] needle; the corneal epithelium was observed under the blue light from the slit lamp after 5 minutes; and the scoring criteria were shown in Table 1.

[2] = test system: dry eye model induced by 0.2% benzalkonium chloride solution; test: Benzalkonium chloride dry eye model: Schirmer's test I (phenol red thread); format: in vivo, C57BL/6 mice
Description: The healthy male C57BL/6 mice were kept in a controlled environment with a temperature of (25±1)° C., a relative humidity of (25±5)%, and light-dark cycles (9 AM-9 PM) with simulated dawn and dusk. Forty mice (80 eyes) were treated with 5 μL of 0.2% benzalkonium chloride solution twice a day (8:00 AM and 6:00 PM) for 14 days to induce dry eye symptoms, while the remaining ten mice (20 eyes) received no treatment and served as a baseline control. Modeling was carried out on the 15th day; and the dry eye rat models were screened based on tear film break-up time (BUT), fluorescein sodium staining of corneal, and Schirmer's test I for tear secretion. To assess tear secretion, Schirmer's test I was performed on mice at 3 PM each day using the phenol red thread; general anesthesia was induced by intraperitoneal injection of pentobarbital (50 mg/kg body weight); the lower eyelid was grasped and gently pulled down; front end of the phenol red thread, folded 1 mm, was placed on the conjunctival surface near the outer canthus of the lower eyelid for 15 seconds; the length of the red-stained portion of the phenol red thread was measured and recorded; the eyelid was then closed after the Schirmer's test I to avoid excessive exposure; each eye was tested twice, and the average length of the red-stained portion of the phenol red thread was recorded as the final result. […] Group A, the drug treatment group, was treated with the eye drops comprising 0.1% TAT-[…] peptide, four times a day; Group B, the solvent control group, was treated with eye drops without TAT-[…] peptide, four times a day; and Group C, the blank control group, received no treatment; on days 1, 4, and 7 after treatment, BUT, Schirmer's test I, and fluorescein sodium staining were performed; on the 7th day, the paraffin sections of the conjunctival fornix was stained by PAS stain; and the number of PAS-positive goblet cells was counted.

[3] = test system: rabbit model of dry eye (0.1% benzalkonium chloride); test: Rabbit model of dry eye: Schirmer's test; format: in vivo, New Zealand white rabbits
Description: (§1) 1.2.1 Grouping: thirty New Zealand white rabbits were randomly divided into three groups, each comprising 10 rabbits: a blank control group, a solvent control group, and a drug treatment group.
(§2) 1.2.2 Preparation of a rabbit model of dry eye: the right eye of each rabbit was used to establish a dry eye rabbit model by administering 0.1% benzalkonium chloride eye drops twice a day for 4 weeks. After 4 weeks, the dry eye rabbit model was evaluated, with the conjunctiva appearing dry, tear production being reduced, and Schirmer test values being less than 10 mm/5 min (compared to the control group, where all Schirmer test values were above 10 mm).
1.2.3 Drug preparation and usage: a liquid formulation of 0.1% TAT-N16 peptide eye drops were prepared by dissolving the peptide raw materials in physiological saline according to a weight ratio of 0.1%. The eye drops comprising 0.1% TAT-N16 peptide were administered 2 drops, 3 times a day for 7 days. The blank control group received no treatment, and the solvent control group received physiological saline eye drops 2 drops, 3 times a day for 7 days. The normal eye group served as a normal control group.
(§3) 1.3 Specimen collection and animal testing were conducted by the same individual. […] The rabbit conjunctiva appearance, fluorescein staining, tear film break-up time were analyzed using a slit lamp before and on days 4 and 7 after treatment; additionally, the Schirmer's test and conjunctival impression cytology (CIC) were carried out.
1.3.1 Schirmer's test: the corneal surface was anesthetized with oxybuprocaine hydrochloride; a cotton swab was used to absorb the fluid around the eyelid; the Schirmer tear test strips were placed at the junction of the ⅓ posterior-middle of the lower conjunctival sac of the New Zealand white rabbit, with the remaining part hanging on the skin surface; the New Zealand white rabbit was then instructed to close its eyes, and after 5 minutes, the length of wet portion of the Schirmer tear test strips was measured.

[4] = test system: rabbit model of dry eye (0.1% benzalkonium chloride); test: Rabbit model of dry eye: tear film break-up time test; format: in vivo, New Zealand white rabbits
Description: as §1, §2
1.2.3 Drug preparation and usage: a liquid formulation of 0.1% TAT-N16 peptide eye drops were prepared by dissolving the peptide raw materials in physiological saline according to a weight ratio of 0.1%. The eye drops comprising 0.1% TAT-N16 peptide were administered 2 drops, 3 times a day for 7 days. […]
as §3
1.3.2 Tear film break-up time test: the fluorescein sodium ophthalmic strips were placed on the lower conjunctival sac for a moment, so that the fluorescein sodium was evenly distributed on the ocular surface; the eyelid was maintained open and observed under cobalt blue filter on a slit lamp; the tear film break-up time was recorded as the number of seconds that elapse between the last blink and the appearance of the first dry spot in the tear film of the cornea; The time from the opening of the eyelid to the appearance of the first dry spot on the tear film was recorded under a slit lamp microscope with cobalt blue light; each eye was measured three times, and the average of the three measurements was recorded in seconds.

[5] = test system: rabbit model of dry eye (0.1% benzalkonium chloride); test: Rabbit model of dry eye: conjunctival impression cytology (CIC), goblet cell density; format: in vivo, New Zealand white rabbits; details: following medication; statistically significant; FIG. 5
Description: as §1
as §2, with “mm). […]” for “mm).”
1.3.3 Conjunctival impression cytology (CIC) examination: CIC examination was performed on days 1, 4, and 7 after treatment; the nitrocellulose membranes were cut into two strips of 3.5 mm×3.5 mm each, soaked in distilled water for 4 h, and then dried; after surface anesthesia, the rough side of the two strips of the nitrocellulose membranes were placed on the nasal and temporal quadrants of the conjunctiva and pressed for 10 seconds to obtain surface epithelial cells; the nitrocellulose membranes were then fixed in 95% ethanol and stained with periodic acid-Schiff (PAS); the number of the goblet cells was counted under an optical microscope and graded according to the Nelson scoring system.

[6] = test system: volunteers diagnosed with dry eye syndrome; test: Population experiment: volunteers with dry eye syndrome; format: in vivo, human; details: 0.1% eye drops, 1-2 drops
Description: Currently, volunteers have been recruited to test the dry eye therapeutic effect of the 0.1% TAT-N16 peptide eye drops disclosed by the disclosure.

[7] = before treatment (baseline), drug treatment group, 0.1% eye drops
[8] = 0 d / before treatment (baseline), drug treatment group
[9] = 4 d, 0.1% eye drops 2 drops, 3 times a day
[10] = 7 d, 0.1% eye drops 2 drops, 3 times a day
[11] = single cases, three (case 4: three to five) times a day

TAT-N16 peptide: cell-penetrating artificial peptide, sequence SEQ ID NO: 2, constructed by linking the peptide N16 to a TAT sequence; P55PIK inhibitor (YGRKKRRQRRRMMPYSTELIFYIEMDP)
Corneal epithelial injury score compared with blank control group or solvent control group ([1]; 4 days of treatment, P>0.05): no statistically significant difference | Corneal epithelial injury score compared with blank control group or solvent control group ([1]; 7 days of treatment, P<0.05): significantly lower | Corneal epithelial injury scores (x ± s, n = 6) ([1]; after 4 days of treatment, 0.1% eye drops four times a day): 3.08 ± 1.43 | Corneal epithelial injury scores (x ± s, n = 6) ([1]; after 7 days of treatment, 0.1% eye drops four times a day): 0.84 ± 0.96 | Corneal epithelial injury scores (x ± s, n = 6) [1, 7]: 4.81 ± 1.61 | Tear secretion volume compared with blank control group and solvent control group ([2]; 4th day of treatment): significantly higher | Schirmer's test I values (x ± s) ([2]; 4 days of treatment, 0.1% eye drops four times a day): 5.14 ± 0.29 mm | Tear secretion volume compared with blank control group and solvent control group ([2]; 7 days of continuous treatment, P<0.05): significantly higher | Schirmer's test I values (x ± s) ([2]; 7 days of treatment, 0.1% eye drops four times a day): 5.88 ± 0.63 mm | Schirmer's test I values (x ± s) [2, 7]: 4.19 ± 0.24 mm | Schirmer' test values [3, 8]: 8.38±0.57 mm | Schirmer' test values [3, 9]: 12.02±1.21 mm | Schirmer' test values [3, 10]: 16.31±1.45 mm | Tear film break-up time (BUT) values [4, 8]: 8.24 ± 1.13 s | Tear film break-up time (BUT) values [4, 9]: 11.72 ± 1.27 s | Tear film break-up time (BUT) values [4, 10]: 15.31 ± 1.85 s | Goblet cell density (CIC examination) compared to before medication [5]: gradual increase | Dry eye symptoms within three days of use ([6]; single case, three times a day): significantly improved | Conjunctival congestion after a week of use [6, 11]: cleared up; also recorded: disappeared | Dry eye symptoms after a week of use [6, 11]: essentially disappeared; also recorded: mostly disappeared; also recorded: disappeared completely; also recorded: largely eliminated | Dry eye symptoms on the first day of use ([6]; single cases, three times a day): improved significantly; also recorded: significantly relief
